Like-named read-outs stand apart in the source and are kept apart here.
What was measured:
[1] = Mean particle size of microparticles estimated from SEM; assay type: physicochemical
[2] = assay type: physicochemical
Procedure: (§1) Core loading measurement of the microspheres was done by dissolving 10 mg of microspheres in 50% acetonitrile followed by centrifugation to pellet the insoluble polymer. Aliquots were analyzed by RP-HPLC and compared to representative standards prepared in 50% acetonitrile. […] The suspensions were vortexed and incubated at 37° C. After 1 hour, aliquots were removed, filtered and analyzed for the amount released by RP-HPLC.

normal rats = assay: Hypoglycemic effect: blood glucose levels after subcutaneous administration; assay type: in vivo
Procedure: PEG-Insulin PLGA microspheres and an equivalent dose of free insulin were administered subcutaneously to normal rats. Blood was drawn periodically and anticoagulated. Blood glucose levels were measured by standard tests.

[3] = Initial release at 1 h, in vitro dissolution of microparticles; assay type: physicochemical; conditions: Monophase microparticles; PBS (50 mM, pH 7.2), 0.02% Tween 20, 25% EtOH, 37° C.
Procedure: as §1

[4] = Double-emulsion (w1/o/w2) PLGA microparticles

| Compound | size range of resulting microspheres ([1]; PLGA microspheres (w/o/w), collected on 25 micron sieve) | CL—Coreload (wt % of active in microparticle as isolated) [2, 4] | CL—Coreload (wt % of active in microparticle as isolated) ([2]; Monophase PLGA microparticles) | PS—Mean Particle Size (estimated from SEM) [1, 4] | PS—Mean Particle Size (estimated from SEM) ([1]; Monophase PLGA microparticles) | % BGL (glucose normalized to a percentage of basal levels) (normal rats; Time 0 hr) | % BGL (glucose normalized to a percentage of basal levels) (normal rats; Time 1 hr) | % BGL (glucose normalized to a percentage of basal levels) (normal rats; Time 2 hr) | % BGL (glucose normalized to a percentage of basal levels) (normal rats; Time 4 hr) | % BGL (glucose normalized to a percentage of basal levels) (normal rats; Time 6 hr) | % BGL (glucose normalized to a percentage of basal levels) (normal rats; Time 8 hr) | % BGL (glucose normalized to a percentage of basal levels) (normal rats; Time 12 hr) | EE—Encapsulation Efficiency (% of active encapsulated in process) [2, 4] | EE—Encapsulation Efficiency (% of active encapsulated in process) ([2]; Monophase PLGA microparticles) | IR—Initial Release at 1 h from in vitro dissolution [3] |
| --- | --- | --- | --- | --- | --- | --- | --- | --- | --- | --- | --- | --- | --- | --- | --- |
| pegylated GM-CSF: GM-CSF conjugated to tresyl-monomethoxy-polyethylene glycol (MW=5000 daltons); paper example | 25-200 μm |  |  |  |  |  |  |  |  |  |  |  |  |  |  |
| Insulin: recombinant human insulin; PLGA microparticles of Examples 14 and 16 |  | 0.23% | 0.6% | 100-350 μm | 30-100 μm |  |  |  |  |  |  |  |  |  |  |
| PEG-Insulin: Human insulin covalently modified with polyethylene glycol, mPEG(5000)-SPA; PLGA microparticles of Examples 15 and 17 |  |  |  | 50-250 μm | 50-100 μm | 100% | 111.1% | 86.5% | 97% | 98.5% | 82% | 88.8% |  |  |  |
| C[C@@H](NC(=O)[C@@H](N)Cc1ccc(O)cc1)C(=O)NCC(=O)N[C@@H](Cc1ccccc1)C(=O)NNC(=O)[C@H](Cc1ccccc1)NC(=O)CNC(=O)[C@@H](C)NC(=O)[C@@H](N)Cc1ccc(O)cc1 [Biphalin] |  | 0.24% | 0.36% | 50-250 μm | 20-100 μm |  |  |  |  |  |  |  | 14.28% | 3.64% | 49.4% |

From patent US6706289B2, “Methods and compositions for enhanced delivery of bioactive molecules” (priority 2000, dated 2004)
